Results: publication doi:10.1101/2023.08.03.551817v2 (biorxiv, 2024)

Legend:
Test in all cases: two-electrode voltage clamp, Xenopus oocytes
[1] = target: T1, GluN1/GluN2A NMDA receptor (channel pore) (Rattus norvegicus, UniProt P35439+Q00959); type: cell-based; conditions: glycine and glutamate present; pH 7.3; -60 mV; open-channel block kinetics
T1 construct: gene Grin1; pcDNA3.1 inserts; mRNA-injected Xenopus laevis oocytes; hetero-tetramer

[2] = target: T2, GluN1/GluN2A NMDA receptor (GluN1 ligand-binding site) (Rattus norvegicus, UniProt P35439); type: cell-based
T2 construct: gene Grin1; pcDNA3.1 inserts; mRNA-injected Xenopus laevis oocytes; hetero-tetramer

[3] = target: T3, GluN1/GluN2A NMDA receptor (GluN1 ligand-binding site) (Rattus norvegicus, UniProt P35439, D732L); type: cell-based
T3 construct: gene Grin1; pcDNA3.1 inserts; mRNA-injected Xenopus laevis oocytes; hetero-tetramer

AKDF^19383 [4] = tested on: T4, AKDF^19383; type: cell-based, Trichoplax adhaerens; conditions: inhibition of constitutive current; pH 7.5; -80 mV
T4 construct: gene TRIADDRAFT_19383; codon-optimized, modified pSP64-poly(A); Xenopus laevis oocytes; homo-tetramer

AKDF^19383 [5] = tested on: T4, AKDF^19383; type: cell-based, Trichoplax adhaerens; conditions: pH 7.5; -80 mV; agonist

For `C[C@]12N[C@H](Cc3ccccc31)c1ccccc12` [MK-801], the “two-electrode voltage clamp, Xenopus oocytes” value [1] was “very similar kinetics of inhibition of WT and mutant receptors (Fig. 3A)”.
`O=C(O)c1cc(O)c2c(Cl)cc(Cl)cc2n1` [5,7-dichlorokynurenic acid] was tested, and the IC50 [2] was 24.9 ± 5.2 µM and the IC50 [3] was 0.44 ± 0.12 µM.
For `C[C@H](N)C(=O)O` [alanine], the “% inhibition at 10 mM” value (AKDF^19383 [4]) was ~ 50%.
`NCC(=O)O` [glycine] was tested, and the “% inhibition at 10 mM” value (AKDF^19383 [4]) was ~ 50%.
`N[C@H](CO)C(=O)O` [D-serine] was tested, and the “% inhibition at 10 mM” value (AKDF^19383 [4]) was ~ 50% and the EC50 (AKDF^19383 [5]) was 490 ± 120 µM.
